Experimental data reported in patent US20110158924A1, “PHOTO-PROTECTIVE DERMATOLOGICAL FORMULATIONS” (DermaPlus, Inc., priority 2007, published 2011).
Read-outs that look alike come from different tables or passages of the source.

Tests used:
HEK 293 cells [1] = assay: Cell survival of HEK 293 cells after H2O2 stress treatment (MTT assay); format: cell-based, human; details: for viability at 5000 µM: Homo sapiens, read-out: Cell Survival (%); for protection of cell survival against H2O2 exposure (in words): 0.5 mM H2O2, 3 h
Description: For stress treatments, HEK 293 cells were grown to about 80% confluence. […] For testing the protective ability of other amino acids, cells were treated for 3 h with 0.5 mM H2O2 in the absence and presence of each amino acid (5 mM). Cells overexpressing PRODH, P5CS, and P5CR were incubated with H2O2 (0.5 mM) for 3 h at 37° C. after 24 h of transfection. Mild oxidative stress treatment was performed by treating HEK 293 cells with 20 μM H2O2 for 0-24 h at 37° C. […] Percent cell survival was estimated by counting live and dead cells using the 3-(4,5-dimethylthiazol-2-yl)-2,5-diphenyltetrazolium bromide (MTT) assay according to the recommendations of the manufacturer (Promega).

P5CS = P5CS (Homo sapiens, UniProt P54886); details: read-out: Km for P5CS activity; extracts of HEK 293 cells overexpressing P5CS, substrate glutamate
Sequence of P5CS (P54886 1-793 isoform P54886-2): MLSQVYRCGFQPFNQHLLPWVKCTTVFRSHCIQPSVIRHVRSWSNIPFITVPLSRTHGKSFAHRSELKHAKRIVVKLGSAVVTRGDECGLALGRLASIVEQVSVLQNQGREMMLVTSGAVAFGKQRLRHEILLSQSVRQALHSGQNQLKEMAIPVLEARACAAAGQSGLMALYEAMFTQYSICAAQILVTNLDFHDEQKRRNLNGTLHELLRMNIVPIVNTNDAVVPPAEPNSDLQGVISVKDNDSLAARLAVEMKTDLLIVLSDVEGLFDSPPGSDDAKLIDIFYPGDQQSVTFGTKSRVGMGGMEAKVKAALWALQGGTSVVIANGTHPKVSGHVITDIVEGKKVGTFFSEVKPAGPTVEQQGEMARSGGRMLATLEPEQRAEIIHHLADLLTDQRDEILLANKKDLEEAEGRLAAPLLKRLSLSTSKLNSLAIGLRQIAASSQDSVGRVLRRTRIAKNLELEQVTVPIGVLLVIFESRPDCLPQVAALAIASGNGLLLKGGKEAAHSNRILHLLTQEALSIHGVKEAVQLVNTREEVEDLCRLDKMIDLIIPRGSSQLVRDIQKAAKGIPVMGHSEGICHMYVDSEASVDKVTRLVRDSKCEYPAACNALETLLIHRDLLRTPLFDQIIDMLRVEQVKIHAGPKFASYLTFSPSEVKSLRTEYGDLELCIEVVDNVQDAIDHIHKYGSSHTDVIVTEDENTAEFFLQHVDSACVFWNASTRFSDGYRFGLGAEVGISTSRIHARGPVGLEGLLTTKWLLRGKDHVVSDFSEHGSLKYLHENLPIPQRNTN
Description: (§1) P5CS activity was measured in a reaction mixture of 50 mM Tris-HCl (pH 7.0), 0-50 mM glutamate, […], 10 mM ATP, and 0.2 mM NADPH and by monitoring the oxidation of NADPH at 340 nm. P5CR activity in the cell lysate was also determined by monitoring the oxidation of NADPH at 340 nm as described in Merrill, M. J., Yeh, G. C., and Phang, J. M. (1989) J. Biol. Chem. 264, 9352-9358, which reference is incorporated herein by reference in its entirety. Background rates for each of the above assays were determined from assays using lysates of HEK 293 cells transfected with the pcDNA3.1 vector alone. Km values for each enzyme activity were estimated by varying the concentration of the substrates and non-linear regression analysis of the initial velocity vs substrate concentration.

HEK 293 cells [2] = details: H2O2 1 mM for 3 and 6 h, 5 mM proline
Description: The cell pellets were resuspended in 0.4 ml of 100 mM Tris-HCl (pH 8.5) containing 0.2% SDS, 0.2 mg/ml proteinase K and 5 mM EDTA. The cells were then incubated at 37° C. for 16 h. NaCl was next added to the cell suspension at a final concentration of 1.5 M and the nuclear debris was removed by centrifugation at room temperature. The nucleic acids in the supernatant were then precipitated using established protocols. DNA samples were analyzed by non-denaturing agarose gel electrophoresis (1.5%) and visualized by ethidium bromide staining.

HEK 293 cells [3] = details: H2O2 1 mM, proline 5 mM; H2O2 alone 55%, no stress 6%
Description: Intracellular ROS levels in HEK 293 cells were evaluated before and after H2O2 treatment by incubating PBS washed cells for 10 min with dichlorodihydrofluorescein diacetate (DCHF-DA) (20 μM) (Molecular Probes).
Quantitative ROS measurements were performed using flow cytometry. After oxidative stress treatment as described above, cells (5×10^5) were washed with PBS and incubated with DCHF-DA (0.1 mM) for 15 min in the dark at room temperature. Cells were then washed twice with PBS to remove excess DCHF-DA and resuspended in PBS containing 10 mM EDTA. The cells were then analyzed using FACScan flow cytometry (Becton-Dickinson, San Jose, Calif.). The mean fluorescence channel of each sample was calculated using FACS-equipped […] ® software and is reported as the percent fluorescence observed in the live cell population. In each assay, matching cells not treated with DCHF-DA served as a control.

P5CR = P5CR (Homo sapiens, UniProt Q96C36); details: read-out: Km for P5CR activity; extracts of HEK 293 cells overexpressing P5CR, substrate P5C
Sequence of P5CR (Q96C36 whole entry): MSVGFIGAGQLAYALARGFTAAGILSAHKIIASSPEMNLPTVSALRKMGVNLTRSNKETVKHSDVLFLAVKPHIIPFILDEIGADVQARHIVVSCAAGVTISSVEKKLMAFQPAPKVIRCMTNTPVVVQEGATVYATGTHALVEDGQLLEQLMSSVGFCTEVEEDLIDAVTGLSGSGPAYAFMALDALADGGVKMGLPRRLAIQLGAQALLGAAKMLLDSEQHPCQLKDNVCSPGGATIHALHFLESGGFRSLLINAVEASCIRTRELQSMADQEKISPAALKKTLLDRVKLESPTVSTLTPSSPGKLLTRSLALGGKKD
Description: as §1

[4] = substrate: O=C(O)[C@@H]1CCCN1; assay: cells, lysate or membranes named; details: other: extracts of HEK 293 cells overexpressing PRODH, substrate proline; pH 7.0
[5] = HEK293, amino acid supplement 5 mM, 0.5 mM H2O2 for 3 h at 37° C., MTT, no supplement 39, control without H2O2 97
[6] = HEK293, 3 h, amino acid supplement 5 mM, 0.5 mM H2O2 for 3 h at 37° C., MTT, no supplement 39, control without H2O2 97

## N[C@@H](CCC(=O)O)C(=O)O [glutamate, reference compound]
HEK 293 cells [1]; amino acid supplement 5 mM, 0.5 mM H2O2 for 3 h at 37° C., MTT, no supplement 39, control without H2O2 97
  Cell Survival (%): 35%
P5CS
  Km: ~20 mM

## N[C@@H](Cc1c[nH]cn1)C(=O)O [histidine]
HEK 293 cells [1]; [5]
  viability at 5000 µM: 58%
HEK 293 cells [1]; amino acid supplement 5 mM
  protection of cell survival against H2O2 exposure (in words): protection against H2O2 exposure

## N[C@@H](CS)C(=O)O [cysteine]
HEK 293 cells [1]; HEK293, 3 h
  viability at 5000 µM: 68%
HEK 293 cells [1]; amino acid supplement 5 mM
  protection of cell survival against H2O2 exposure (in words): increase cell survival to almost the same level as proline

## CC[C@H](C)[C@H](N)C(=O)O [isoleucine, reference compound]
HEK 293 cells [1]; [5]
  viability at 5000 µM: 42%

## N=C(N)NCCC[C@H](N)C(=O)O [arginine, reference compound]
HEK 293 cells [1]; HEK293, 3 h
  viability at 5000 µM: 50%

## NCC(=O)O [glycine, reference compound]
HEK 293 cells [1]; [6]
  viability at 5000 µM: 33%

## NC(=O)C[C@H](N)C(=O)O [asparagine, reference compound]
HEK 293 cells [1]; [5]
  viability at 5000 µM: 48%

## NC(=O)CC[C@H](N)C(=O)O [glutamine, reference compound]
HEK 293 cells [1]; [5]
  viability at 5000 µM: 49%

## N[C@@H](CO)C(=O)O [serine]
HEK 293 cells [1]; [5]
  viability at 5000 µM: 58%

## C[C@@H](O)[C@H](N)C(=O)O [threonine]
HEK 293 cells [1]; [5]
  viability at 5000 µM: 59%
HEK 293 cells [1]; amino acid supplement 5 mM
  protection of cell survival against H2O2 exposure (in words): protection against H2O2 exposure

## CC(C)C[C@H](N)C(=O)O [leucine, reference compound]
HEK 293 cells [1]; [5]
  viability at 5000 µM: 43%

## N[C@@H](Cc1c[nH]c2ccccc12)C(=O)O [tryptophan]
HEK 293 cells [1]; HEK293, 3 h
  viability at 5000 µM: 66%
HEK 293 cells [1]; amino acid supplement 5 mM
  protection of cell survival against H2O2 exposure (in words): increase cell survival to almost the same level as proline

## N[C@@H](Cc1ccc(O)cc1)C(=O)O [tyrosine, reference compound]
HEK 293 cells [1]; [5]
  viability at 5000 µM: 41%

## O=C(O)[C@@H]1CCCN1 [proline]
HEK 293 cells [1]; [6]
  viability at 5000 µM: ~77%
HEK 293 cells [2]
  DNA laddering induced by H2O2: lack of DNA laddering
HEK 293 cells [3]
  cell fluorescence levels (fluorescent positives, indicative of ROS): 10%

## N[C@@H](Cc1ccccc1)C(=O)O [phenylalanine]
HEK 293 cells [1]; [5]
  viability at 5000 µM: 51%

## CC(C)[C@H](N)C(=O)O [valine, reference compound]
HEK 293 cells [1]; [5]
  viability at 5000 µM: 44%

## CSCC[C@H](N)C(=O)O [methionine]
HEK 293 cells [1]; [6]
  viability at 5000 µM: 57%
HEK 293 cells [1]; amino acid supplement 5 mM
  protection of cell survival against H2O2 exposure (in words): protection against H2O2 exposure

## NCCCC[C@H](N)C(=O)O [lysine]
HEK 293 cells [1]; HEK293, 3 h
  viability at 5000 µM: 54%

## O=C(O)C1CCC=N1 (stereo not drawn) [P5C]
P5CR
  Km: 15 mM

## N[C@@H](CC(=O)O)C(=O)O [aspartate, reference compound]
HEK 293 cells [1]; [5]
  viability at 5000 µM: 35%

## C[C@H](N)C(=O)O [alanine, reference compound]
HEK 293 cells [1]; [5]
  viability at 5000 µM: 48%

B1: PRODH (Homo sapiens) (protein)
chain: MALRRALPALRPCIPRFVPLSTAPASREQPAAGPAAVPGGGSATAVRPPVPAVDFGNAQEAYRSRRTWELARSLLVLRLCAWPALLARHEQLLYVSRKLLGQRLFNKLMKMTFYGHFVAGEDQESIQPLLRHYRAFGVSAILDYGVEEDLSPEEAEHKEMESCTSAAERDGSGTNKRDKQYQAHWAFGDRRNGVISARTYFYANEAKCDSHMETFLRCIEASGRVSDDGFIAIKLTALGRPQFLLQFSEVLAKWRCFFHQMAVEQGQAGLAAMDTKLEVAVLQESVAKLGIASRAEIEDWFTAETLGVSGTMDLLDWSSLIDSRTKLSKHLVVPNAQTGQLEPLLSRFTEEEELQMTRMLQRMDVLAKKATEMGVRLMVDAEQTYFQPAISRLTLEMQRKFNVEKPLIFNTYQCYLKDAYDNVTLDVELARREGWCFGAKLVRGAYLAQERARAAEIGYEDPINPTYEATNAMYHRCLDYVLEELKHNAKAKVMVASHNEDTVRFALRRMEELGLHPADHRVYFGQLLGMCDQISFPLGQAGYPVYKYVPYGPVMEVLPYLSRRALENSSLMKGTHRERQLLWLELLRRLRTGNLFHRPA
[4]
  Km: 14 ± 0.5 mM
